For 14 molecules, IC50 results are on record in patent publication US6881741B2 (ViroChem Pharma Inc., priority 2001, dated 2005).

pIC50: −log10 of the molar value. A value given as a limit tells only on which side of the number the result lay.

For the first assay, the target named is recombinant HCV NS5B (HCV RNA-dependent RNA polymerase) (Hepatitis C virus genotype 1b, UniProt P26663). In words: biochemical. Particulars: HCV polymerase activity, list of compounds of Example 27; read-out: IC50 (polymerase activity).
Sequence of recombinant HCV NS5B (HCV RNA-dependent RNA polymerase) (P26663 2420-3010 limits assumed): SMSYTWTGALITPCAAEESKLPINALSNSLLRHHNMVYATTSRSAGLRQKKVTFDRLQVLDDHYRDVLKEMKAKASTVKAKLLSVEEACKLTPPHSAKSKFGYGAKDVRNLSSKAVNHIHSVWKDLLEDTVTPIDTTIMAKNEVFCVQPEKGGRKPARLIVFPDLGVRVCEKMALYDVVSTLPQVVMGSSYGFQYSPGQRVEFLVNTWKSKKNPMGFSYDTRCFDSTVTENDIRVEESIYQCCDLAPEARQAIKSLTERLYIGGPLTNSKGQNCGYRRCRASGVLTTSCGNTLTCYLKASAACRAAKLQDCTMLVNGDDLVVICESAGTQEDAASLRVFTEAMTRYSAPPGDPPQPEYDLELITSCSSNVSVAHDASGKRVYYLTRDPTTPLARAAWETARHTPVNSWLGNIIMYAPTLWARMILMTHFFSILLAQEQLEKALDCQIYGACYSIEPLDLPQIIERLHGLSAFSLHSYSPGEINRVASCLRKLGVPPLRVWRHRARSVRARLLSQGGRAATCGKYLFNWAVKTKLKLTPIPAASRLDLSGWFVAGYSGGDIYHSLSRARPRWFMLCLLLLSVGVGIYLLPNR
With `CC(C)N(C(=O)C1=CC[C@@H](C)CC1)c1cc(-c2ccccc2)sc1C(=O)O` [Compound 562, 3-[(4S)-ISOPROPYL-(4-METHYL- CYCLOHEX-1-ENECARBONYL)-AMINO]-5- PHENYL-THIOPHENE-2-CARBOXYLIC ACID], the pIC50 was more than 5.30.

Regarding `O=C(O)c1sc(-c2ccccc2)cc1N(C(=O)c1ccc(Cl)cc1Cl)C1CCCCC1` [Compound 553, 3-[CYCLOHEXYL-(2,4-DICHLORO- BENZOYL)-AMINO]-5-PHENYL- THIOPHENE-2-CARBOXYLIC ACID], the pIC50 was more than 5.30. Same read-out and setting: the same measure for `Cc1cccc(-c2cc(N(C(=O)C3CCC(C)CC3)C(C)C)c(C(=O)O)s2)c1` (centres unmarked) [Compound 448, 3-[ISOPROPYL-(4-METHYL- CYCLOHEXANECARBONYL)-AMINO]-5- #M!-TOLYL-THIOPHENE-2-CARBOXYLIC ACID]: more than 5.30; for `O=C(O)c1sc(-c2ccccc2)cc1N(Cc1ccc(C(F)(F)F)cc1)C(=O)C1CCCCC1` [Compound 436, 3-[CYCLOHEXANECARBONYL-(4- TRIFLUOROMETHYL-BENZYL)-AMINO]-5- PHENYL-THIOPHENE-2-CARBOXYLIC ACID]: more than 5.30. Regarding `O=C(O)c1sc(-c2ccccc2)cc1N(C(=O)c1ccc(Cl)cc1Cl)C1CCC(C(=O)O)C1` (centres unmarked) [Compound 548, 3-[(3-CARBOXY-CYCLOPENTYL)-(2,4- DICHLORO-BENZOYL)-AMINO]-5- PHENYL-THIOPHENE-2-CARBOXYLIC ACID], the negative-log IC50 (pIC50) is more than 5.30.

Consider `CC1CN(C(=O)OCc2ccccc2)CCC1N(C(=O)c1ccc(Cl)cc1Cl)c1cc(-c2ccccc2)sc1C(=O)O` (centres unmarked) [Compound 533, 4-[(2-CARBOXY-5-PHENYL-THIOPHEN-3- YL)-(2,4-DICHLORO-BENZOYL)-AMINO]-3- METHYL- PIPERIDINE-1-CARBOXYLIC ACID BENZYL ESTER], for which the pIC50 was more than 5.30. With `C=CCN(C(=O)CC1CCCC1)c1cc(-c2ccccc2)sc1C(=O)O` [Compound 401, 3-[ALLYL-(2-CYCLOPENTYL-ACETYL)- AMINO]-5-PHENYL-THIOPHENE-2- CARBOXYLIC ACID], the pIC50 was more than 5.30.

Staying with this assay, now noted: related polymerase activity (Example 27 list); read-out: IC50.
With `CN(C(=O)c1cc2ccccc2s1)c1cc(-c2ccccc2)sc1C(=O)O` [Compound 251, 3-[(BENZO[B]THIOPHENE-2-CARBONYL)-METHYL-AMINO]-5-PHENYL-THIOPHENE-2-CARBOXYLIC ACID], the pIC50 is 4.70 to 5.30. `Cc1ccc(S(=O)(=O)Nc2cc(-c3ccc(C#N)cc3)sc2C(=O)O)cc1` [Compound 290, 5-(4-CYANO-PHENYL)-3-(TOLUENE-4-SULFONYLAMINO)-THIOPHENE-2-CARBOXYLIC ACID]: the pIC50 is 4.70 to 5.30. Take `Cc1ccccc1S(=O)(=O)Nc1cc(-c2ccccc2)sc1C(=O)O` [Compound 62, 5-PHENYL-3-(TOLUENE-2-SULFONYLAMINO)-THIOPHENE-2-CARBOXYLIC ACID]: the pIC50 was more than 5.30. For `CCOC(=O)c1c(S(=O)(=O)Nc2cc(-c3ccccc3)sc2C(=O)O)c(-c2ccccc2)n(-c2ccccc2)c1C` [Compound 155, 4-(2-CARBOXY-5-PHENYL-THIOPHEN-3-YLSULFAMOYL)-2-METHYL-1,5-DIPHENYL-1H-PYRROLE-3-CARBOXYLIC ACID ETHYL ESTER], the pIC50 was more than 5.30. On the same count and under the same terms, the figure for `Cc1ccc(C(=O)N(c2cc(-c3ccccc3)sc2C(=O)O)C(C)C)c(O)c1` [Compound 301, 3-[(2-HYDROXY-4-METHYL-BENZOYL)- ISOPROPYL-AMINO]-5-PHENYL- THIOPHENE-2-CARBOXYLIC ACID] is 4.70 to 5.30; for `O=C(O)c1sc(-c2ccccc2)cc1NS(=O)(=O)c1c(Cl)cccc1Cl` [Compound 44, 3-(2,6-DICHLORO-BENZENESULFONYLAMINO)-5-PHENYL-THIOPHENE-2-CARBOXYLIC ACID] it is more than 5.30; for `Cc1ccc(C(=O)N(C)c2cc(-c3ccc(C(F)(F)F)cc3)sc2C(=O)O)cc1` [Compound 275, 3-[METHYL-(4-METHYL-BENZOYL)-AMINO]-5-(4-TRIFLUOROMETHYL-PHENYL)-THIOPHENE-2-CARBOXYLIC ACID] it is more than 5.30.

By pIC50 is commonly meant −log10 of the IC50, conventionally taken in molar units.
